Experimental data published in US11117892B2, “Pyrrolo-pyridine derivative compound, method for preparing same, and pharmaceutical composition containing same as active ingredient for prevention or treatment of protein kinase-related diseases” (DAEGU-GYEONGBUK MEDICAL INNOVATION FOUNDATION, priority 2017, dated 2021).
pIC50: −log10 of the molar value.

Experiments:
DYRK1A [1] = molecular target: T1, DYRK1A (Homo sapiens (Human), UniProt Q13627); assay: DYRK1A kinase inhibition, 33P-ATP filter-binding method; format: biochemical; settings: IC50 grade; head prints μM, key nM
Description: Particularly, a substrate was added to a basic reaction buffer (20 mM Hepes (pH 7.5), 10 mM MgCl2, 1 mM EGTA, 0.02% Brij35, 0.02 mg/ml BSA, 0.1 mM Na3VO4, 2 mM DTT, 1% DMSO), to which cofactors necessary for the reaction were added. Then, DYRK1A kinase was added thereto, followed by mixing well. Each compound of Examples was added thereto by using acoustic technology (Echo550; nanoliter range). The mixture was left at room temperature for 20 minutes and then ^33P-ATP (specific activity 10 mCi/ml) was added to initiate the reaction. After reacting at room temperature for 2 hours, spotting was performed on P81 exchange paper. Upon completion of the reaction, kinase activity was detected using a filter-binding method.

DYRK1A [2] = molecular target: T1, DYRK1A; assay: DYRK1A kinase binding assay using LanthaScreen Eu
Description: First, 10 concentrations (9 concentrations diluted serially by 3× and DMSO) of each compounds were diluted in 1× kinase buffer A (Invitrogen, PV6135) three times the final concentration.
This antibody/kinase mixed solution was added to the assay plate where the diluted compound was loaded at the concentration of 5 μl/well. At this time, the final concentrations of the antibody and the DYRK1A were 2 nM and 5 nM respectively.
Emission ratio (Kinase Tracer Emission Antibody Emission) was calculated based on the measured values, which was presented as a dose-response curve. Then, IC50 was calculated.

[3] = system: Drosophila over-expressing minibrain specifically in wings; assay: wing vein developmental abnormality, Drosophila over-expressing minibrain specifically in wings; format: in vivo; settings: medium supplemented with compound at 10 μM
From the text: To confirm the DYRK1A inhibitory effect of the compound according to the present invention in vivo, wings of the Drosophila model over-expressing minibrain gene specifically in wings were observed. First, in order to produce Drosophila over-expressing minibrain specifically in wings, the UAS-Minibrain transformed Drosophila was mated with the wing specific promoter MS1096-Gal4 transformed Drosophila, resulting in the production of F1 generation. Next, the effect of improving wing defects was confirmed to verify the DYRK1A inhibitory effect of the compound according to the present invention using the Drosophila DYRK1A/minibrain inhibitor discovery model. A medium supplemented with the compound at the concentration of 10 μM was prepared, in which embryos of Drosophila over-expressing minibrain specifically in wings were raised, followed by investigation of wing phenotype.

mouse pancreatic β-cell = mouse pancreatic β-cell proliferation (Ki-67/insulin staining); format: cell-based; settings: mouse pancreatic β-cells cultured with compound for 72 hours
Description: It is known that when human β-cells are treated with harmine that inhibits DYRK1A, the proliferation of β-cells is promoted by increasing the transcription factor activity by inhibiting the phosphorylation of NFAT known as a phosphorylation substrate of DYRK1A.
Particularly, pancreatic Langerhans islet tissues were extracted from the mouse at 8 weeks old, followed by culture in RPMI1640 medium supplemented with 10% FCS (fetal calves serum), 5.5 mM glucose and 1% penicillin-streptomycin for 24 hours.
Next, in order to separate β-cells as single cells from the Langerhans islet, cells were washed twice with PBS, followed by centrifugation. The collected cells were left in the medium supplemented with 1 mg/ml of trypsin for 10 minutes at 37° C. The cells were shaken using a pipette every 10 seconds for 5 minutes. Trypsin reaction was terminated by adding RPMI1640 containing 10% FCS (fetal calves serum), 5.5 mM glucose and 1% penicillin-streptomycin, followed by centrifugation to collect single cells.
Then, the single cells were loaded on the laminin-coated cover glass and stabilized for 24 hours. The cells were cultured in the medium containing the compound of the present invention for 72 hours. […] The cells double-stained with Ki-67/insulin were counted under Olympus F-1000 confocal fluorescence microscope to investigate cell proliferation.

IC50 (DYRK1A [1]) [µM]	Compound	pIC50 (DYRK1A [2])	also measured
< 0.01	COCCNc1cc(Nc2ccc(C(=O)N3CCC(N4CCN(C)CC4)CC3)cc2OC)nc2[nH]cc(C(F)(F)F)c12 [Example 67]		
< 0.01	COCCNc1cc(Nc2ccc(C(=O)N3CCC(N4CCOCC4)CC3)cc2OC)nc2[nH]cc(C(F)(F)F)c12 [Example 65, (3-methoxy-4-((4-((2-methoxyethyl)amino)-3-(trifluoromethyl)-1H-pyrrolo[2,3-b]pyridin-6-yl)amino)phenyl) (4-morpholinopiperidin-1-yl)methanone]		
> 0.1	CNc1cc(Nc2ccc(C(=O)N3CCOCC3)cc2OC)nc2[nH]cc(C#N)c12 [Example 1, 6-((2-methoxy-4-(morpholine-4-carbonyl)phenyl)amino)-4-(methylamino)-1H-pyrrolo[2,3-b]pyridine-3-carbonitrile]		
	CCNc1cc(Nc2cc(F)c(C(=O)NC3CCN(C(C)C)CC3)cc2OC)nc2[nH]cc(C(F)(F)F)c12 [Example 74]	7.00 to 8.00	
< 0.01	CCNc1cc(Nc2ccc(C(=O)N3CCOCC3)cc2OC)nc2[nH]cc(C#N)c12 [Example 2, 4-(ethylamino)-6-((2-methoxy-4-(morpholine-4-carbonyl)phenyl)amino)-1H-pyrrolo[2,3-b]pyridine-3-carbonitrile]		
	COc1cc(C(=O)N2CCOCC2)ccc1Nc1cc(NC2CC2)c2c(C(F)(F)F)c[nH]c2n1 [Example 95, (4-((4-(cyclopropylamino)-3-(trifluoromethyl)-1H-pyrrolo[2,3-b]pyridin-6-yl)amino)-3-methoxyphenyl) (morpholino) methanone]	7.00 to 8.00	
	CNc1cc(Nc2ccc(C(=O)N3CCOCC3)cc2OC)nc2[nH]cc(C(F)(F)F)c12 [Example 58, (3-methoxy-4-((4-(methylamino)-3-(trifluoromethyl)-1H-pyrrolo[2,3-b]pyridin-6-yl)amino)phenyl) (morpholino)methanone]		inhibition of the wing vein developmental abnormality [3]: 47.9%
	COCCN(C)c1cc(Nc2ccc(C(=O)N3CCC(N4CCOCC4)CC3)cc2OC)nc2[nH]cc(C(F)(F)F)c12 [Example 88]	7.00 to 8.00	
< 0.01	CNc1cc(Nc2ccc(C(=O)N3CCC(N4CCOCC4)CC3)cc2OC)nc2[nH]cc(C(F)(F)F)c12 [Example 59, (3-methoxy-4-((4-(methylamino)-3-(trifluoromethyl)-1H-pyrrolo[2,3-b]pyridin-6-yl)amino)phenyl) (4-morpholinopiperidin-1-yl)methanone]		
	COc1cc(C(=O)N2CCC(N3CCOCC3)CC2)ccc1Nc1cc(N[C@@H](CO)C(C)C)c2c(C(F)(F)F)c[nH]c2n1 [Example 91]	7.00 to 8.00	
< 0.01	CNc1cc(Nc2ccc(C(=O)N3CCC(N4CCN(C)CC4)CC3)cc2OC)nc2[nH]cc(C(F)(F)F)c12 [Example 61, (3-methoxy-4-((4-(methylamino)-3-(trifluoromethyl)-1H-pyrrolo[2,3-b]pyridin-6-yl)amino)phenyl) (4-(4-methylpiperazin-1-yl)piperidin-1-yl)methanone]		
	CNc1cc(Nc2ccc(N3CCN(C)CC3)cc2OC)nc2[nH]cc(C(F)(F)F)c12 [Example 62, N^6-(2-methoxy-4-(4-methylpiperazin-1-yl)phenyl)-N^4-methyl-3-(trifluoromethyl)-1H-pyrrolo[2,3-b]pyridine-4,6-diamine]		inhibition of the wing vein developmental abnormality [3]: 47.7%
	COCCNc1cc(Nc2ccc(C(=O)N3CCOCC3)cc2OC)nc2[nH]cc(C(F)(F)F)c12 [Example 64, (3-methoxy-4-((4-((2-methoxyethyl)amino)-3-(trifluoromethyl)-1H-pyrrolo[2,3-b]pyridine-6yl)amino)phenyl) (morpholino)methanone]	7.00 to 8.00	
	CCNc1cc(Nc2ccc(C(=O)N3CCC(N4CCN(C)CC4)CC3)cc2OC)nc2[nH]cc(C(F)(F)F)c12 [Example 70]	7.00 to 8.00	
> 0.1	CCNc1cc(Nc2ccc(C(=O)N3CCO[C@@H](C)C3)cc2OC)nc2[nH]cc(C#N)c12 [Example 27, (S)-4-(ethylamino)-6-((2-methoxy-4-(2-methylmorpholine-4-carbonyl)phenyl)amino)-1H-W pyrrolo[2,3-b]pyridine-3-carbonitrile]		
< 0.01	CNc1cc(Nc2ccc(C(=O)N3CCN(C)CC3)cc2OC)nc2[nH]cc(C(F)(F)F)c12 [Example 63, (3-methoxy-4-((4-(methylamino)-3-(trifluoromethyl)-1H-pyrrolo[2,3-b]pyridin-6-yl)amino)phenyl) (4-methylpiperazin-1-yl)methanone]		inhibition of the wing vein developmental abnormality [3]: 43.8%
	COc1cc(C(=O)N2CCC(N3CCOCC3)CC2)ccc1Nc1cc(NC(C)C)c2c(C(F)(F)F)c[nH]c2n1 [Example 90, (4-(4-(isopropylamino)-3-(trifluoromethyl)-1H-pyrrolo[2,3-b]pyridin-6-ylamino)-3-methoxyphenyl) (4-morpholinopiperidin-1-yl)methanone]	7.00 to 8.00	
	COCCNc1cc(Nc2ccc(C(=O)N3CCN(C)CC3)cc2OC)nc2[nH]cc(C(F)(F)F)c12 [Example 66, (3-methoxy-4-((4-((2-methoxyethyl)amino)-3-(trifluoromethyl)-1H-pyrrolo[2,3-b]pyridin-6-yl)amino)phenyl) (4-methylpiperazin-1-yl)-methanone]	7.00 to 8.00	
	COCCNc1cc(Nc2cc(F)c(C(=O)NC3CCN(C)CC3)cc2OC)nc2[nH]cc(C(F)(F)F)c12 [Example 73, 2-fluoro-5-methoxy-4-((4-((2-methoxyethyl)amino)-3-(trifluoromethyl)-1H-pyrrolo[2,3-b]pyridin-6-yl)amino) (1-methylpiperidin-4-yl)benzamide]	7.00 to 8.00	
< 0.01	CCCNc1cc(Nc2ccc(C(=O)N3CCOCC3)cc2OC)nc2[nH]cc(C#N)c12 [Example 10, 6-((2-methoxy-4-(morpholine-4-carbonyl)phenyl)amino)-4-(propylamino)-1H-pyrrolo[2,3-b]pyridine-3-carbonitrile]		
> 0.1	COCCNc1cc(Nc2ccc(C(=O)N3CCOCC3)cc2OC)nc2[nH]cc(C#N)c12 [Example 4, 6-((2-methoxy-4-(morpholine-4-carbonyl)phenyl)amino)-4-((2-methoxyethyl)amino)-1H-pyrrolo[2,3-b]pyridine-3-carbonitrile]		
> 0.1	CNc1cc(Nc2ccc(C(=O)N3CCO[C@@H](C)C3)cc2OC)nc2[nH]cc(C#N)c12 [Example 23, (S)-6-((2-methoxy-4-(2-methylmorpholine-4-carbonyl)phenyl)amino)-4-(methylamino)-1H-pyrrolo[2,3-b]pyridine-3-carbonitrile]		
	COCCN(C)c1cc(Nc2ccc(C(=O)N3CCOCC3)cc2OC)nc2[nH]cc(C(F)(F)F)c12 [Example 87]	7.00 to 8.00	
< 0.01	CCNc1cc(Nc2ccc(C(=O)N3CCOCC3)cc2OC)nc2[nH]cc(C(F)(F)F)c12 [Example 56, (4-((4-(ethylamino)-3-(trifluoromethyl)-1H-pyrrolo[2,3-b]pyridin-6-yl)amino)-3-methoxyphenyl) (morpholino)methanone]		
	COc1ccc2c(c1)[nH]c1c(C)nccc12 [harmine, reference compound]		cell proliferation (mouse pancreatic β-cell): active

Compound	IC50 (DYRK1A [1]) [µM]	pIC50 (DYRK1A [2])	also measured
CNc1cc(Nc2cc(F)c(C(=O)N3CCN(C)CC3)cc2OC)nc2[nH]cc(C(F)(F)F)c12 [Example 60, (2-fluoro-5-methoxy-4-((4-(methylamino)-3-(trifluoromethyl)-1H-pyrrolo[2,3-b]pyridin-6-yl)amino)phenyl) (4-methylpiperazin-1-yl)methanone]	0.01 to 0.1		
COCCNc1cc(Nc2cc(OC)c(OC)c(OC)c2)nc2[nH]cc(C#N)c12 [Example 5, 4-((2-methoxyethyl)amino)-6-((3,4,5-trimethoxyphenyl)amino)-1H-pyrrolo[2,3-b]pyridine-3-carbonitrile]	0.01 to 0.1		
CCNc1cc(Nc2cc(OC)c(OC)c(OC)c2)nc2[nH]cc(C(F)(F)F)c12 [Example 53, N^4-ethyl-3-(trifluoromethyl)-N^6-(3,4,5-trimethoxyphenyl)-1H-pyrrolo[2,3-b]pyridine-4,6-diamine]	0.01 to 0.1		
